# In patent US10005767B2, “Compositions and methods for inhibition of the JAK pathway” (Rigel Pharmaceuticals, Inc., priority 2009, dated 2018):
# Where a name gives a salt, the structure may show the parent alone.
# Tested on: human primary T-cells, IL-2 stimulated proliferation (JAK-1 and JAK-3 dependent; reported as JAK3 activity)
# Assay: Human primary T-cell proliferation stimulated by IL-2 (Example 3)
# Type: cell-based
# Conditions: Homo sapiens, T-cell, tested under conditions described in Example 3 (IL-2 stimulated human primary T-cell proliferation); read-out: ability to inhibit JAK3 activity, IC50 range (Table V)
# In short: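 Peripheral-blood human T-cells pre-activated via TCR/CD28, IL-2-starved overnight, then cultured 72 h at 37 °C with compound in Yssel's medium containing IL-2 (80 U/mL in cell suspension). Proliferation read as viable-cell ATP by CellTiter-Glo luminescence; reduction versus control taken as JAK pathway inhibition.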
row,Structure (SMILES),IC50
1,"COc1cc(Nc2ncc(C)c(Nc3cc(C)c4oc(=O)[nH]c4c3)n2)cc(C(F)(F)F)c1 [Compound I-427, 5-(2-(3-methoxy-5-(trifluoromethyl)phenylamino)-5-methylpyrimidin-4-ylamino)-7-methylbenzo[d]oxazol-2(3H)-one]",> 10000 nM
2,"Cc1cnc(Nc2ccc(N3CCN(C(C)C)CC3)nc2)nc1Nc1ccc2oc(=O)[nH]c2c1 [II-136, N2-[2-(4-isopropylpiperazino)pyridin-5-yl]-5-methyl-N4-(2-oxo-2,3-dihydro-1,3-benzoxazol-5-yl)-2,4-pyrimidinediamine]",< 500 nM
3,"Cc1cnc(Nc2cccc(C(C)NC(C)C)c2)nc1Nc1ccc2oc(=O)[nH]c2c1 (centres unmarked) [Compound I-209, 5-(2-(3-(1-(isopropylamino)ethyl)phenylamino)-5-methylpyrimidin-4-ylamino)benzo[d]oxazol-2(3H)-one]",< 500 nM
4,"Cc1cc(Nc2ncc(C)c(Nc3ccc4oc(=O)[nH]c4c3)n2)ccc1N1CC2(C)CN(C)CC(C)(C1)C2 [Compound I-5, N4-(benzo[d]oxazol-2(3H)-on-5-yl)-N2-(3-methyl-4-(1,5,7-trimethyl-3,7-diazabicyclo[3.3.1]nonan-3-yl)phenyl)-5-methylpyrimidine-2,4-diamine]",500 to 5000 nM
5,"Cc1cnc(Nc2ccc(-c3ccc(OCCCN(C)C)nc3)cc2)nc1Nc1ccc2oc(=O)[nH]c2c1 [Compound I-511, 5-(2-(4-(6-(3-(dimethylamino)propoxy)pyridin-3-yl)phenylamino)-5-methylpyrimidin-4-ylamino)benzo[d]oxazol-2(3H)-one trifluoroacetate salt]",< 500 nM
6,"Cc1cnc(Nc2cc(Cl)cc(Cl)c2)nc1Nc1ccc2oc(=O)[nH]c2c1 [Compound I-184, 5-[2-(3,5-Dichloro-phenylamino)-5-methyl-pyrimidin-4-ylamino]-3H-benzooxazol-2-one]",< 500 nM
7,"Cc1cnc(Nc2ccc3c(C)n[nH]c3c2)nc1Nc1ccc2oc(=O)[nH]c2c1 [IV-48, 5-methyl-N2-(3-methylindazol-6-yl)-N4-(2-oxo-2,3-dihydro-1,3-benzoxazol-5-yl)-2,4-pyrimidinediamine]",< 500 nM
8,"COc1ccc(Nc2ncc(C)c(Nc3ccc4oc(=O)[nH]c4c3)n2)cc1C(=O)N(C)C [Compound I-260, 2-methoxy-N,N-dimethyl-5-(5-methyl-4-(2-oxo-2,3-dihydrobenzo[d]oxazol-5-ylamino)pyrimidin-2-ylamino)benzamide]",< 500 nM

# Same assay, conditions: tested under conditions described in Example 3 (IL-2 stimulated human primary T-cell proliferation); read-out: ability to inhibit JAK3 activity, IC50 range (Table V)
row,Structure (SMILES),IC50
1,"Cc1cnc(Nc2cc(C)c(C)c(C)c2)nc1Nc1ccc2oc(=O)n(COP(=O)(O)O)c2c1 [Compound I-406, 5-methyl-N4-[3-(phosphonooxy)methyl-2-oxo-2,3-dihydro-1,3-benzoxazol-5-yl]-N2-(3,4,5-trimethyl)phenyl-2,4-pyrimidinediamine]",500 to 5000 nM
2,Cc1cnc(Nc2cccc(S(C)(=O)=O)c2)nc1Nc1ccc2oc(=O)[nH]c2c1 [Compound I-16],< 500 nM
3,"CS(=O)(=O)Nc1cc(Nc2ncc(F)c(Nc3ccc4oc(=O)[nH]c4c3)n2)ccc1F [Compound I-90, N2-((4-fluoro-3-methylsulfonylamino)phenyl)-N4-(2-oxo-2,3-dihydrobenzo[d]oxazol-5-yl)-5-fluoropyrimidine-2,4-diamine]",< 500 nM
4,"Cc1cnc(Nc2ccc(F)c(F)c2)nc1Nc1ccc2oc(=O)[nH]c2c1 [Compound I-398, N2-(3,4-difluoro)phenyl-5-methyl-N4-(2-oxo-2,3-dihydro-1,3-benzoxazol-5-yl)-2,4-pyrimidinediamine]",< 500 nM
5,"COc1cc(Nc2ncc(C)c(Nc3ccc4oc(=O)n(COP(=O)(O)O)c4c3)n2)cc(C(F)(F)F)c1 [Compound I-357, N2-(3-methoxy-5-trifluoromethyl)phenyl-5-methyl-N4-[3-(phosphonooxy)methyl-2-oxo-2,3-dihydro-1,3-benzoxazol-5-yl]-2,4-pyrimidinediamine]",500 to 5000 nM
6,"Cc1cnc(Nc2ccc(S(=O)(=O)NC(C)(C)C)cc2)nc1Nc1ccc2oc(=O)[nH]c2c1 [Compound I-112, N4-(benzoxazolin-2-on-5-yl)-N2-[4-N-(t-butyl)aminosulfonylphenyl]-5-methylpyrimidine-2,4-diamine]",< 500 nM
